In ChEMBL document CHEMBL4411309, “Discovery of 2-substituted-N-(3-(3,4-dihydroisoquinolin-2(1H)-yl)-2-hydroxypropyl)-1,2,3,4-tetrahydroisoquinoline-6-carboxamide as potent and selective protein arginine methyltransferases 5 inhibitors: Design, synthesis and biological evaluation” (Eur J Med Chem, 2019):

Experiments:
[1] = molecular target: Protein arginine N-methyltransferase 6 (Homo sapiens, UniProt Q96LA8); assay: Inhibition of human N-terminal His-tagged PRMT6 (2 to 375 residues) expressed in Escherichia coli preincubated for 15 mins followed by substrate addition and measured after 1 hr by Alphalisa assay
Chain of Protein arginine N-methyltransferase 6 (Q96LA8 whole entry, the tested form may be a part): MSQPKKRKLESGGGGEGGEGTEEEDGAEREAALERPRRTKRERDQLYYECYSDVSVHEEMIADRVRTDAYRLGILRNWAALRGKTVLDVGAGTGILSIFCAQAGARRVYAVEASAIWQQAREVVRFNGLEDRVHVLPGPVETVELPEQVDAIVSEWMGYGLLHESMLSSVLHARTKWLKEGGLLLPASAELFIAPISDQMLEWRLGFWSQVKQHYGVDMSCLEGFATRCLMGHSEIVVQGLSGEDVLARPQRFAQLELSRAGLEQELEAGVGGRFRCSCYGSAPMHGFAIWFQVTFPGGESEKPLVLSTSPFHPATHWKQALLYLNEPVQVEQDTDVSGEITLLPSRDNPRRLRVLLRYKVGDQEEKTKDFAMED

[2] = molecular target: PRMT5/MEP50 complex (Homo sapiens, UniProt O14744); assay: Inhibition of recombinant human N-terminal FLAG-tagged PRMT5 (2 to end residues)/human N-terminal His-tagged MEP50 (2 to end residues) expressed in HEK293F cells using H4 peptide as substrate preincubated for 15 mins followed by substrate and [3H]SAM addition and measured after 1 hr by scintillation counting method
Chain of PRMT5/MEP50 complex (O14744 whole entry): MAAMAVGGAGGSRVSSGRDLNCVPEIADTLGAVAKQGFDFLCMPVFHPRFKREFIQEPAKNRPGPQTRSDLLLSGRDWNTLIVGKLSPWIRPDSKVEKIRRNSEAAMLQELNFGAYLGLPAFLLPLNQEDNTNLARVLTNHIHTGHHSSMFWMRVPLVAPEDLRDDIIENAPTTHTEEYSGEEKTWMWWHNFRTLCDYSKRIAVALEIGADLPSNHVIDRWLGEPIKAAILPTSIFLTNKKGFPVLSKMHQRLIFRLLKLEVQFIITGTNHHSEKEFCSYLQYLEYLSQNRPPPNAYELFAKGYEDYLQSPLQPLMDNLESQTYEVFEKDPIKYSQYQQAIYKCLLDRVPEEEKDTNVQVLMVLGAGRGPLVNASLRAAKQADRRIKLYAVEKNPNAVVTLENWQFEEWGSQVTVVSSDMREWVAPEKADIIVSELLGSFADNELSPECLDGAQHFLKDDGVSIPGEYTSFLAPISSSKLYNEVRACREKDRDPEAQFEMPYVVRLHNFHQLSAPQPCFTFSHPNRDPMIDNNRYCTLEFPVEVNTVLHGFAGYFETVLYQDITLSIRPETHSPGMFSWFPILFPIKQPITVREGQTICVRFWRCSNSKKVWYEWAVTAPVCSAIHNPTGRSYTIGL
Chain of PRMT5/MEP50 complex (Q9BQA1 whole entry, further chain): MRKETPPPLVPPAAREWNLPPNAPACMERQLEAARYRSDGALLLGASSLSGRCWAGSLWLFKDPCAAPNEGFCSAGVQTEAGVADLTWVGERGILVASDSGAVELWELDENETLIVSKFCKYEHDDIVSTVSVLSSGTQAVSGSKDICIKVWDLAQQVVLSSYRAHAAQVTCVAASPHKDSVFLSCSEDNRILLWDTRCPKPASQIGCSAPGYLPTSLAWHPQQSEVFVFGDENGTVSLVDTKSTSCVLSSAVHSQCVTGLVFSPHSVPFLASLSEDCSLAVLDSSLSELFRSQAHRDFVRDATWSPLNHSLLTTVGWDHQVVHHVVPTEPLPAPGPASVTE

[3] = molecular target: T1, Protein arginine N-methyltransferase 7 (Homo sapiens, UniProt Q9NVM4); assay: Inhibition of recombinant full length human N-terminal FLAG-tagged PRMT7 expressed in Sf9 insect cells preincubated for 15 mins followed by substrate and [3H]SAM addition and measured after 240 mins by microbeta method
T1 sequence (Q9NVM4 whole entry): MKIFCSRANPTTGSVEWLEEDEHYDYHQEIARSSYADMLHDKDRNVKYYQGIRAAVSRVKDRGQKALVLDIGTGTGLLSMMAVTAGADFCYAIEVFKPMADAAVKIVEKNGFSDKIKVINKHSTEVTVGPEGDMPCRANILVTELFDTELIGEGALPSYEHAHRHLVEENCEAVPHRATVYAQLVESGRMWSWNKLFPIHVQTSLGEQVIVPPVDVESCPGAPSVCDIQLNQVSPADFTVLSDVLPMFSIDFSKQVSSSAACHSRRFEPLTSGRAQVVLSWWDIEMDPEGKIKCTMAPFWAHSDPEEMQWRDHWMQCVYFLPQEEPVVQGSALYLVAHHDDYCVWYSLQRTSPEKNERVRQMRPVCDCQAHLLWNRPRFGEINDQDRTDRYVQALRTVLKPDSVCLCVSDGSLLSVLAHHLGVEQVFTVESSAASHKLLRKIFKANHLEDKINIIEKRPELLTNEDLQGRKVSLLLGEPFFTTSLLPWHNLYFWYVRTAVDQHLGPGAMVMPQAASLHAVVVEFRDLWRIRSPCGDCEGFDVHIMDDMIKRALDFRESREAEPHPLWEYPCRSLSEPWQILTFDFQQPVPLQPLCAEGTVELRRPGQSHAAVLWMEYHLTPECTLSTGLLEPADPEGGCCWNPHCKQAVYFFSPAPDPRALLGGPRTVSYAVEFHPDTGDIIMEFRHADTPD

[4] = test system: MV4-11; assay: Antiproliferative activity against human MV4-11 cells supplemented with fresh medium containing compound every 4 days measured on day 8 by Celltiter-glo luminescent cell viability assay; type: functional
[5] = molecular target: Protein arginine N-methyltransferase 1 (Homo sapiens, UniProt Q99873); assay: Inhibition of human N-terminal GST-tagged PRMT1 (2 to end residues) expressed in baculovirus infected Sf9 insect cells preincubated for 15 mins followed by substrate and [3H]SAM addition and measured after 1 hr by microbeta method
Chain of Protein arginine N-methyltransferase 1 (Q99873 whole entry): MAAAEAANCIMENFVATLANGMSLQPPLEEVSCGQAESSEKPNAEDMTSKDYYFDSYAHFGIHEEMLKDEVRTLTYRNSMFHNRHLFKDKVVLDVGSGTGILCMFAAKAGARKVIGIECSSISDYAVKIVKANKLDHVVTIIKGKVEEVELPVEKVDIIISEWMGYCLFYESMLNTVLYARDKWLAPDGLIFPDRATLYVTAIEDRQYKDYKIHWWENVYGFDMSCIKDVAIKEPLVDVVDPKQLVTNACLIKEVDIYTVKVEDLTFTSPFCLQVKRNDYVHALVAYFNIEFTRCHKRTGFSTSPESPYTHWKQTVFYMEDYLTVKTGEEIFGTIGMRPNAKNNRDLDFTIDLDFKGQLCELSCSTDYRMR

[6] = Aqueous solubility of the compound; type: physicochemical; settings: buffer
[7] = molecular target: T2, Histone-arginine methyltransferase CARM1 (Homo sapiens, UniProt Q86X55); assay: Inhibition of human N-terminal FLAG-tagged PRMT4 (2 to end residues) expressed in FreeStyle 293-F cells preincubated for 15 mins followed by substrate addition and measured after 1 hr by Alphalisa assay; type: cell-based
T2 sequence (Q86X55 whole entry): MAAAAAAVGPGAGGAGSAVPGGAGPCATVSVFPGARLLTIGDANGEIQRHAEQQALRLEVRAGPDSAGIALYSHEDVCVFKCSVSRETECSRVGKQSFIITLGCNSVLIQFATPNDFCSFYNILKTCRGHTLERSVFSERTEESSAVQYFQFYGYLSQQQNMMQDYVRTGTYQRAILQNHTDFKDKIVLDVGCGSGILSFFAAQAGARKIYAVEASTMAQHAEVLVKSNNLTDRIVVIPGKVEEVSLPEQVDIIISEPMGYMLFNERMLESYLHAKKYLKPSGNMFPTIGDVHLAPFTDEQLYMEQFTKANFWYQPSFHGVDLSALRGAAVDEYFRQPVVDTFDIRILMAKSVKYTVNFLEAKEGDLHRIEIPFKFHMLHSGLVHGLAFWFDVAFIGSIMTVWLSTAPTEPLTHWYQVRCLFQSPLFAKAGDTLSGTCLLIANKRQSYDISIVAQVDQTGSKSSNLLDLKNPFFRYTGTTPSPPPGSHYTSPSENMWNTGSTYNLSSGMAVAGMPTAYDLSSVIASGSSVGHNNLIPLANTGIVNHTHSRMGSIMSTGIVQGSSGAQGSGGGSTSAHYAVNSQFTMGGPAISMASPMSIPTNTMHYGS

[8] = molecular target: Protein arginine N-methyltransferase 3 (Homo sapiens, UniProt O60678); assay: Inhibition of human N-terminal GST-tagged PRMT3 (2 to end residues) expressed in Escherichia coli preincubated for 15 mins followed by substrate addition and measured after 1 hr by Alphalisa assay
Chain of Protein arginine N-methyltransferase 3 (O60678 whole entry): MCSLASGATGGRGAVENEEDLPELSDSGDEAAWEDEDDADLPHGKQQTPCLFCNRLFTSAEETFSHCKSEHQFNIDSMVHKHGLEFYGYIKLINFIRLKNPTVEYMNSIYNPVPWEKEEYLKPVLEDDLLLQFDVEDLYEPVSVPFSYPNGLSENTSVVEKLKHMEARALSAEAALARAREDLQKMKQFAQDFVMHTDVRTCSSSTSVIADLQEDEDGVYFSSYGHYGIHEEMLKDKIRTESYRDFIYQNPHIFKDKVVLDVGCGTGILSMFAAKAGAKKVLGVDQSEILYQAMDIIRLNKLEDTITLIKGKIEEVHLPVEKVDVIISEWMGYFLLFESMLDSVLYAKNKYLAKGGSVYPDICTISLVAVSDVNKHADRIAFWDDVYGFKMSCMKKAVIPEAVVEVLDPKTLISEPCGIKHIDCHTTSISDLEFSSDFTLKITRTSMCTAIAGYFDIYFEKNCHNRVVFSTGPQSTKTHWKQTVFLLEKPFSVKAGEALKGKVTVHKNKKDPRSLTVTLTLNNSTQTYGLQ

[9] = test system: MV4-11; assay: Antiproliferative activity against human MV4-11 cells supplemented with fresh medium containing compound every 4 days measured on day 12 by Celltiter-glo luminescent cell viability assay; type: functional
[10] = molecular target: Protein arginine N-methyltransferase 8 (Homo sapiens, UniProt Q9NR22); assay: Inhibition of human N-terminal His/FLAG-tagged PRMT8 (61 to 394 residues) expressed in baculovirus infected Sf9 insect cells preincubated for 15 mins followed by substrate addition and measured after 1 hr by Alphalisa assay
Chain of Protein arginine N-methyltransferase 8 (Q9NR22 whole entry, the tested form may be a part): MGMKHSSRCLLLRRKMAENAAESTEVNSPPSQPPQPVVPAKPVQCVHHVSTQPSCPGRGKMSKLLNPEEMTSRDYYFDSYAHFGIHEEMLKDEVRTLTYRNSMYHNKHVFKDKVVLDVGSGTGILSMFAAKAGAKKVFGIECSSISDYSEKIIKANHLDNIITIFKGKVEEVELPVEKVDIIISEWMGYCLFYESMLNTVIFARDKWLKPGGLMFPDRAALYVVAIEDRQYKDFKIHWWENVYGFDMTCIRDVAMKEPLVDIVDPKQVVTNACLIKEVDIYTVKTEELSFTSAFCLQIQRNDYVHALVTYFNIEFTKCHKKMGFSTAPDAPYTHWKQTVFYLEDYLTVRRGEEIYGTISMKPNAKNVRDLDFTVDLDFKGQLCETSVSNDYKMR

[11] = Cmax in Sprague-Dawley rat at 10 mg/kg, po administered via gavage by LC-MS/MS analysis; type: ADME, organism-based; parameters: dose 10 mg/kg, route oral; settings: in vivo
[12] = Elimination half life in Sprague-Dawley rat at 10 mg/kg, po administered via gavage by LC-MS/MS analysis; type: ADME, organism-based; settings: in vivo, read-out: beta t1/2 (converted)
[13] = AUC in Sprague-Dawley rat at 10 mg/kg, po administered via gavage by LC-MS/MS analysis; type: ADME, organism-based; settings: in vivo
[14] = Tmax in Sprague-Dawley rat at 10 mg/kg, po administered via gavage by LC-MS/MS analysis; type: ADME, organism-based; settings: in vivo
[15] = test system: MV4-11; assay: Antitumor activity against human MV4-11 cells xenografted in Balb/c nude mouse assessed as tumor growth inhibition at 100 mg/kg, po administered once daily for 30 days relative to control; type: functional; settings: MV4-11, po, 720 h, read-out: TGI

Row | IC50 [1] [µM] | IC50 [2] [µM] | IC50 [3] [µM] | GI50 [4] [µM] | IC50 [5] [µM] | solubility [6] | IC50 [7] [µM] | IC50 [8] [µM] | GI50 [9] [µM] | IC50 [10] [µM] | Cmax [11] [ng/mL] | half-life [12] [h] | AUC [13] [ng·h/mL] | Tmax [14] [h] | SMILES | inhibition in vivo at 100 mg/kg [15] [%]
1 | > 100 | 0.0085 | > 100 | 0.025 | > 100 | Insoluble | > 100 | > 100 | 0.018 | > 100 | – | – | – | – | O=C(NC[C@H](O)CN1CCc2ccccc2C1)c1ccc2c(c1)CCN(C(=O)c1ccc(Br)cc1)C2 | –
2 | – | – | – | – | – | Soluble | – | – | – | – | 32 | 4.6 | 168 | 0.583 | Cl.O=C(NC[C@H](O)CN1CCc2ccccc2C1)c1ccc2c(c1)CCN(C(=O)c1ccc(Br)cc1)C2 | 54
